Test results reported in US8415351B2 (priority 2007, dated 2013).

Tests used:
[1] = molecular target: T1, HCV polymerase 1B (Δ21 NS5B, BK) (Hepatitis C virus genotype 1b, UniProt P26663); experiment: biochemical
T1 construct: 20 to 50 nM Δ21 NS5B
Method: (§1) HCV Polymerase Inhibition Assay
(§2) Either two-fold serial dilutions (fractional inhibition assay) or a narrower range of dilutions spanning the IC50 of the inhibitor (tight binding assay) of the inhibitors were incubated with 20 mM Tris-Cl pH 7.4, 2 mM MnCl2, 1 mM dithiothreitol, 1 mM ethylene diamine tetraacetic acid (EDTA), 60 to 125 μM GTP and 20 to 50 nM Δ21 NS5B (HCV Strain 1B (BK, Genbank accession number M58335, or H77, Genbank accession number AF011751)) for 15 min at room temperature. The reaction was initiated by the addition of 20 μM CTP, 20 μM ATP, 1 μM ^3H-UTP (10 mCi/umol), 5 nM template RNA and 0.1 U/μl RNase inhibitor (RNasin, Promega), and allowed to proceed for 2 to 4 h at room temperature. Reaction volume was 50 μl. The reaction was terminated by the addition of 1 volume of 4 mM spermine in 10 mM Tris-Cl pH 8.0, 1 mM EDTA. After incubation for at least 15 min at room temperature, the precipitated RNA was captured by filtering through a GF/B filter (Millipore) in a 96 well format. The filter plate was washed three times with 200 μl each of 2 mM spermine, 10 mM Tris-Cl pH 8.0, 1 mM EDTA, and 2 times with ethanol. After air-drying, 30 μl of Microscint 20 scintillation cocktail (Packard) was added to each well, and the retained cpm were determined by scintillation counting. […] Retained cpm were plotted vs. inhibitor concentration and fit to equation 1 using non-linear regression (ref. 1) to obtain the IC50 values: Retained cpm=A[sqrt{(IC50+It−Et)^2+4*IC50*Et}−(IC50+It−Et)]
Ref. Morrison, J. F. and S. R. Stone. 1985. Approaches to the study and analysis of the inhibition of enzymes by slow- and tight-binding inhibitors. Comments Mol. Cell. Biophys. 2: 347-368.
The sequence of the template RNA used was: 5′-[…] […] […] […] […] […] […] […] […] […] […] […] […] […] […] […] […]-3′ (SEQ ID NO: 1)

[2] = molecular target: T2, HCV polymerase 1A (Δ21 NS5B, H77) (Hepatitis C virus genotype 1a, UniProt P27958); experiment: biochemical; conditions: IC50 1a
T2 construct: 20 to 50 nM Δ21 NS5B
T2 sequence (P27958 2421-2990, stated change not applied): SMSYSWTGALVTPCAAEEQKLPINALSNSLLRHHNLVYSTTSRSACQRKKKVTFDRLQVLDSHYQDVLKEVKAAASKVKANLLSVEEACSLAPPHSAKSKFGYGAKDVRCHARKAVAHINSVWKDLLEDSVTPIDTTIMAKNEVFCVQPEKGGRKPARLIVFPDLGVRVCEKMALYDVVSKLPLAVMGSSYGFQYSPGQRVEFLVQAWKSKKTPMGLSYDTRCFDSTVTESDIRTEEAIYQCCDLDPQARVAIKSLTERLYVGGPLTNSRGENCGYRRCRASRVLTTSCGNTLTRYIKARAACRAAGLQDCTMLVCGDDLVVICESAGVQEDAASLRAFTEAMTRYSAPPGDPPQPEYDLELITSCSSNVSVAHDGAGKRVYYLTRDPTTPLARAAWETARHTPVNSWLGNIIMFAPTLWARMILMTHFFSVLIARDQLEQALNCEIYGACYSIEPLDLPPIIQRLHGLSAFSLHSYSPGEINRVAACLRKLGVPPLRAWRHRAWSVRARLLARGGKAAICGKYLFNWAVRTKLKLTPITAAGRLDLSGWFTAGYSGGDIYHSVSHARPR
Method: as §1
as §2, with “The” for “Either two-fold serial dilutions (fractional inhibition assay) or a narrower range of dilutions spanning the IC50 of the inhibitor (tight binding assay) of the inhibitors were incubated with 20 mM Tris-Cl pH 7.4, 2 mM MnCl2, 1 mM dithiothreitol, 1 mM ethylene diamine tetraacetic acid (EDTA), 60 to 125 μM GTP and 20 to 50 nM Δ21 NS5B (HCV Strain 1B (BK, Genbank accession number M58335, or H77, Genbank accession number AF011751)) for 15 min at room temperature. The”
Ref. Morrison, J. F. and S. R. Stone. […] Approaches to the study and analysis of the inhibition of enzymes by slow- and tight-binding inhibitors. Comments Mol. Cell. Biophys.
The sequence of the template RNA used was: 5′-[…]

[3] = tested on: genotype 1b-Con1 subgenomic replicon cell line; experiment: microbe, parasite or virus in culture; type: cell-based, HCV; conditions: Hepatitis C virus, read-out: EC50 1b
[4] = tested on: genotype 1a-H77 subgenomic replicon cell line; experiment: microbe, parasite or virus in culture; type: cell-based, HCV; conditions: Hepatitis C virus, read-out: EC50 1a

T1 sequence (P26663 2420-2989, stated change not applied): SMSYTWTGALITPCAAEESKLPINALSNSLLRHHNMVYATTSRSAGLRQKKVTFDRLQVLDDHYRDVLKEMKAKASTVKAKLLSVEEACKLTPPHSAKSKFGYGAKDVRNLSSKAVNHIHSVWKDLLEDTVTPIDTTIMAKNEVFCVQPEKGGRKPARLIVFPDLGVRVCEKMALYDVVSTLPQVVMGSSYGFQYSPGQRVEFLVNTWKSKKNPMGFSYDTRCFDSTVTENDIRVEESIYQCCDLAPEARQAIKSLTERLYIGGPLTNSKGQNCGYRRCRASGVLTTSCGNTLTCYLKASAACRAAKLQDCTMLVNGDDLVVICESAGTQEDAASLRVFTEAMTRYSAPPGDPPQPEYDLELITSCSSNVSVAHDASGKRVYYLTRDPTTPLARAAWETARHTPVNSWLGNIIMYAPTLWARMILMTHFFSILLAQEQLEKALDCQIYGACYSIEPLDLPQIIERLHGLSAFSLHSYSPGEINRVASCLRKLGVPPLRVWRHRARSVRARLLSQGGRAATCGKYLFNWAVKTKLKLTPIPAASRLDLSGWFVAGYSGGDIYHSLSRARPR

Compound | IC50 [1] | IC50 [2] | EC50 [3] | EC50 [4]
COc1c(C(=O)Nc2ccc(N(COC(C)=O)S(C)(=O)=O)cc2)cc(N2CCC(=O)NC2=O)cc1C(C)(C)C | > 1000 nM | 100 to 1000 nM |  | 
COc1c(-c2ncc(-c3cccc([N+](=O)[O-])c3)o2)cc(N2CCC(=O)NC2=O)cc1C(C)(C)C [IA-L0-1.10, 1-(3-tert-butyl-4-methoxy-5-(5-(3-nitrophenyl)oxazol-2-yl)phenyl)dihydropyrimidine-2,4(1H,3H)-dione] | > 1000 nM | > 1000 nM |  | 
CC(C)(C)c1cc(N2CCC(=O)NC2=O)cc(C(=O)Nc2ccc(OCC#N)cc2)c1O [IA-L3-1.17, 3-tert-butyl-N-(4-(cyanomethoxy)phenyl)-5-(2,4-dioxotetrahydropyrimidin-1(2H)-yl)-2-hydroxybenzamide] |  | > 1000 nM | > 1000 nM | > 1000 nM
CC(C)(C)c1cc(N2CCC(=O)NC2=O)cc(C(=O)Nc2ccc(OCC(N)=O)cc2)c1O [IA-L3-1.18, N-(4-(2-amino-2-oxoethoxy)phenyl)-3-tert-butyl-5-(2,4-dioxotetrahydropyrimidin-1(2H)-yl)-2-hydroxybenzamide] |  | > 1000 nM | 100 to 1000 nM | > 1000 nM
COc1c(/C=C/c2ccc(NS(C)(=O)=O)cc2N)cc(-n2ccc(=O)[nH]c2=O)cc1C(C)(C)C [IB-L1-1.28, (E)-N-(3-amino-4-(3-tert-butyl-5-(2,4-dioxo-3,4-dihydropyrimidin-1(2H)-yl)-2-methoxystyryl)phenyl)methanesulfonamide] |  |  | < 10 nM | < 10 nM
COc1c(/C=C/c2ccc(NS(C)(=O)=O)cc2CN2CC(O)C2)cc(-n2ccc(=O)[nH]c2=O)cc1C(C)(C)C [IB-L1-1.29, N-[4-{(E)-2-[3-tert-butyl-5-(2,4-dioxo-3,4-dihydro-2H-pyrimidin-1-yl)-2-methoxy-phenyl]-vinyl}-3-(3-hydroxy-azetidin-1-ylmethyl)-phenyl]-methanesulfonamide] |  |  | 100 to 1000 nM | 100 to 1000 nM
CCOc1c(/C=C/c2ccc(NS(C)(=O)=O)cc2)cc(-n2ccc(=O)[nH]c2=O)cc1C(C)(C)C [IB-L1-1.30, (E)-N-(4-(3-tert-butyl-5-(2,4-dioxo-3,4-dihydropyrimidin-1(2H)-yl)-2-ethoxystyryl)phenyl)methanesulfonamide] |  |  | 10 to 100 nM | 100 to 1000 nM
COc1c(/C=C/c2ccc(NS(C)(=O)=O)cc2CNCCC(C)C)cc(-n2ccc(=O)[nH]c2=O)cc1C(C)(C)C [IB-L1-1.31, (E)-N-(4-(3-tert-butyl-5-(2,4-dioxo-3,4-dihydropyrimidin-1(2H)-yl)-2-methoxystyryl)-3-((isopentylamino)methyl)phenyl)methanesulfonamide] |  |  | > 1000 nM | > 1000 nM
COc1c(/C=C/c2ccc(NS(C)(=O)=O)cc2NC(=O)OC(C)(C)C)cc(-n2ccc(=O)[nH]c2=O)cc1C(C)(C)C [IB-L1-1.32, (E)-tert-butyl 2-(3-tert-butyl-5-(2,4-dioxo-3,4-dihydropyrimidin-1(2H)-yl)-2-methoxystyryl)-5-(methylsulfonamido)phenylcarbamate] |  |  | 10 to 100 nM | 100 to 1000 nM
COc1c(/C=C/c2ccc(NS(C)(=O)=O)cc2CN2CCCC2)cc(-n2ccc(=O)[nH]c2=O)cc1C(C)(C)C [IB-L1-1.33, N-(4-{(E)-2-[3-tert-Butyl-5-(2,4-dioxo-3,4-dihydro-2H-pyrimidin-1-yl)-2-methoxy-phenyl]-vinyl}-3-pyrrolidin-1-ylmethyl-phenyl)-methanesulfonamide] |  |  | 10 to 100 nM | 100 to 1000 nM
COc1c(/C=C\c2ccc(NS(C)(=O)=O)cc2)cc(-n2ccc(=O)[nH]c2=O)cc1C(C)(C)C [IB-L1-1.34, N-(4-{(Z)-2-[3-tert-Butyl-5-(2,4-dioxo-3,4-dihydro-2H-pyrimidin-1-yl)-2-methoxy-phenyl]-vinyl}-phenyl)-methanesulfonamide] |  |  | < 10 nM | 10 to 100 nM
COc1c(/C=C/c2ccc(NS(C)(=O)=O)cc2)cc(-n2ccc(=O)[nH]c2=O)cc1C(C)(C)CO [IB-L1-1.45, (E)-N-(4-(5-(2,4-dioxo-3,4-dihydropyrimidin-1(2H)-yl)-3-(1-hydroxy-2-methylpropan-2-yl)-2-methoxystyryl)phenyl)methanesulfonamide] |  |  | < 10 nM | 10 to 100 nM
COc1c(/C=C/c2ccc(NS(C)(=O)=O)cc2)cc(-n2ccc(=O)[nH]c2=O)cc1-c1ccco1 [IB-L1-1.46, (E)-N-(4-(5-(2,4-dioxo-3,4-dihydropyrimidin-1(2H)-yl)-3-(furan-2-yl)-2-methoxystyryl)phenyl)methanesulfonamide] |  |  | < 10 nM | 100 to 1000 nM
COc1c(/C=C/c2ccc(NS(C)(=O)=O)cc2)cc(-n2ccc(=O)[nH]c2=O)cc1-c1ccsc1 [IB-L1-1.47, (E)-N-(4-(5-(2,4-dioxo-3,4-dihydropyrimidin-1(2H)-yl)-2-methoxy-3-(thiophen-3-yl)styryl)phenyl)methanesulfonamide] |  |  | 10 to 100 nM | 100 to 1000 nM
COc1c(/C=C/c2ccc(NS(C)(=O)=O)cc2)cc(-n2ccc(=O)[nH]c2=O)cc1-c1cccs1 [IB-L1-1.48, (E)-N-(4-(5-(2,4-dioxo-3,4-dihydropyrimidin-1(2H)-yl)-2-methoxy-3-(thiophen-2-yl)styryl)phenyl)methanesulfonamide] |  |  | < 10 nM | 100 to 1000 nM
COc1c(/C=C/c2ccc(NS(C)(=O)=O)cc2)cc(-n2ccc(=O)[nH]c2=O)cc1S(C)(=O)=O [IB-L1-1.49, (E)-N-(4-(5-(2,4-dioxo-3,4-dihydropyrimidin-1(2H)-yl)-2-methoxy-3-(methylsulfonyl)styryl)phenyl)methanesulfonamide] |  |  | > 1000 nM | > 1000 nM
COc1c(/C=C/c2ccc(NS(C)(=O)=O)cc2)cc(-n2ccc(=O)[nH]c2=O)cc1-c1ccoc1 [IB-L1-1.50, (E)-N-(4-(5-(2,4-dioxo-3,4-dihydropyrimidin-1(2H)-yl)-3-(furan-3-yl)-2-methoxystyryl)phenyl)methanesulfonamide] |  |  | 10 to 100 nM | 100 to 1000 nM
COc1c(I)cc(-n2ccc(=O)[nH]c2=O)cc1/C=C/c1ccc(NS(C)(=O)=O)cc1 [IB-L1-1.51, (E)-N-(4-(5-(2,4-dioxo-3,4-dihydropyrimidin-1(2H)-yl)-3-iodo-2-methoxystyryl)phenyl)methanesulfonamide] |  |  | 10 to 100 nM | > 1000 nM
COc1c(Br)cc(-n2ccc(=O)[nH]c2=O)cc1/C=C/c1ccc(NS(C)(=O)=O)cc1 [IB-L1-1.52, (E)-N-(4-(3-bromo-5-(2,4-dioxo-3,4-dihydropyrimidin-1(2H)-yl)-2-methoxystyryl)phenyl)methanesulfonamide] |  |  | 100 to 1000 nM | > 1000 nM
COC(=O)c1cc(NS(C)(=O)=O)ccc1CCc1cc(-n2ccc(=O)[nH]c2=O)cc(C(C)(C)C)c1OC [IB-L5-2-1.1, methyl 2-(3-tert-butyl-5-(2,4-dioxo-3,4-dihydropyrimidin-1(2H)-yl)-2-methoxyphenethyl)-5-(methylsulfonamido)benzoate] |  |  | < 10 nM | 10 to 100 nM
COc1c(CCc2ccc(NS(C)(=O)=O)cc2)cc(-n2ccc(=O)[nH]c2=O)cc1C(C)(C)C [IB-L5-2-1.2, N-(4-(3-tert-butyl-5-(2,4-dioxo-3,4-dihydropyrimidin-1(2H)-yl)-2-methoxyphenethyl)phenyl)methanesulfonamide] |  |  | 10 to 100 nM | 100 to 1000 nM
